Test results reported in patent US12329764B2, “Composition for promoting normal urinary function” (Vidya Herbs, Inc., priority 2018, dated 2025).

Key:
[1] = test system: BPH model rats; assay: Prostate growth in testosterone induced BPH rats; assay type: in vivo, Wistar rats
Procedure: Forty-two male Wistar rats (10 week old) were purchased from Biogen, Bangalore, India (CPCSEA Reg. No. 971/bc/06). The animals were housed in accordance with the CPCSEA (Committee for the Purpose of Control and Supervision of Experiments on Animals) guidelines. After a one-week acclimatization period the animals were housed in rooms maintained at 22±2° C. and 30-70% humidity. Water and standard pellet diet were given ad libitum. The animals were randomly divided into seven groups, each group consisting of six animals with less than 20% mean body weight range.
(§1) BPH was induced in rats using testosterone 5 mg/kg subcutaneously and a simultaneous treatment with different doses of saw palmetto preparations viz. Saw palmetto oil (SPO) and the inventive composition (200 and 400 mg/kg b.w.) or Finasteride (1 mg/kg b.w.) p.o., was followed for 21 days (Table 1). The inventive composition (VISPO) was a composition of saw palmetto oil having 3% β-sitosterol. At the end of the treatment period, blood was collected prior to the necropsy. Animals were sacrificed by overdose of anesthetics. The vital parameters such as prostate weight, prostate weight to body weight ratio, growth inhibition of prostate, serum testosterone level, expression of inflammatory and apoptotic proteins in prostate tissue were evaluated.
Following a 21-day treatment with the saw palmetto oil preparations and/or Finasteride, prostate tissues were excised, rinsed and weighed immediately after removal. The PW/BW ratio was calculated using the following equation: PW/BW ratio=(Prostate weight of each animal from experimental group/Body weight of each animal from experimental group)×1000. The percentage of growth inhibition was calculated as follows: 100−[(treated group−control group)/(BPH group−control group)]×100.

[2] = test system: hyperplastic patterns in prostate tissue of BPH rats; assay: Histology (H&E) of prostate tissue of BPH rats; assay type: in vivo, Wistar rats; conditions: finasteride group 1 mg/kg
Procedure: as §1
The prostate tissue samples were fixed in 4% formalin, dehydrated with a graded alcohol series, embedded in paraffin, and then cut into 4 μm thickness. The sections were stained with hematoxylin and eosin (H&E, Sigma-Aldrich, St. Louis, MO, USA). The images were captured using a microscope (Leica, Germany).

Compound: CC(C)(C)NC(=O)[C@H]1CC[C@H]2[C@@H]3CC[C@H]4NC(=O)C=C[C@]4(C)[C@H]3CC[C@]12C [Finasteride]
- Prostate weight ([1]; 1 mg/kg p.o., 21 days, testosterone 5 mg/kg s.c., mean ± SEM (n = 6)): 0.27 ± 0.01 g
- Inhibition of growth ([1]; 1 mg/kg p.o., 21 days, prostate growth vs BPH and control groups): 93.18%
- Reduction in prostate weight ([1]; Finasteride treatment 1 mg/kg, vs BPH group): 2.51 fold
- Prostate weights, in words ([1]; vs BPH group, p<0.001): reduced considerably
- Histological examination of prostate tissue [2]: near normal prostatic glands with mild focal inflammation
